Where two headings read alike, the source gives them in different places.

Broadly, the inhibition is the percentage by which the read-out fell short of the control. As a reminder, the IC50 is the concentration needed to halve the response being measured. A higher IC50 goes with weaker potency in that assay.

Test [1] has as its system LTC4 production in MC/9 cells. Nature of the test: MC/9 HPLC assay, inhibition of LTC4 production. Format: cell-based. Conditions: Mus musculus; for inhibition at 3 µM: MC9, 3 μM, A23187 stimulated. The method, boiled down:
(§1)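 MC/9 cells (3×10^6 in HBSS) pre-incubated 30 min with compound, then stimulated 20 min at room temperature with 1 μM A23187. After methanol quench and C18 solid-phase extraction, LTB4 and LTC4 quantified by HPLC against reference standards; inhibition relative to control samples.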

The test system of test [2] is LTB4 production in MC/9 cells. Nature of the test: MC/9 HPLC assay, inhibition of LTB4 production. Format: cell-based. The settings on record: Mus musculus. The method, boiled down:
as §1

Test [3] deals with T1, recombinant human leukotriene A4 hydrolase enzyme (Homo sapiens, UniProt P09960).
T1 construct: purchased Cayman Chemical 10007817
T1 sequence (P09960 1-611): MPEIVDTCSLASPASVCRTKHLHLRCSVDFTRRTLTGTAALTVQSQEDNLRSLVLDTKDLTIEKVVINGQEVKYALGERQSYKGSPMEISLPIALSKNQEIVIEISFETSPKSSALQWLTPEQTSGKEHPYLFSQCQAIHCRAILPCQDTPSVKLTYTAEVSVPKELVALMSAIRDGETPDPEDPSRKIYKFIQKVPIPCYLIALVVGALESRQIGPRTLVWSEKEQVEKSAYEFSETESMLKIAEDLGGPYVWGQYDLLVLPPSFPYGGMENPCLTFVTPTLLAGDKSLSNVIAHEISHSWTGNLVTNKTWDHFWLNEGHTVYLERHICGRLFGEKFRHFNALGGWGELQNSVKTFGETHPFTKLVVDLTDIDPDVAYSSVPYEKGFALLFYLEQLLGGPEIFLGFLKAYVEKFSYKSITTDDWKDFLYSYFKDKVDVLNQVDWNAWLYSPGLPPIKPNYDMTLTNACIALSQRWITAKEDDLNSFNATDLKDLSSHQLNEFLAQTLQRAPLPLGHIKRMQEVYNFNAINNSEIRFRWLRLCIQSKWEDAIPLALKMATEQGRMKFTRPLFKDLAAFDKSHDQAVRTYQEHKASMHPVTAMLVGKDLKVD
As to the kind of experiment: Amino-peptidase assay, alanine-4-nitroanalide. The settings on record: negative values = augmented peptidase activity, read-out: % Inhibition aminopeptidase-Alanine-4-nitroanalide activity of LTA4H (3 μM). Format: biochemical. An outline of the steps:
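Compounds pre-incubated in the dark with recombinant human LTA4H (0.5 μg) in 50 mM Tris-HCl, 100 mM KCl; reaction started with alanine-4-nitroanilide (6 mM solution). Aminopeptidase rate followed as A405 from 4-nitroaniline, referenced to a standard; inhibition calculated versus controls, with negative values indicating augmented activity.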

In test [4] the target is T1, recombinant human leukotriene A4 hydrolase enzyme. As to the kind of experiment: Amino-peptidase assay, PGP. Conditions: concentration not given. Format: biochemical. The procedure:
A series of compound concentrations were pre-incubated with 50 ng of recombinant human leukotriene A4 hydrolase enzyme (Cayman Chemical, 10007817) in 50 L assay buffer (50 mM Tris-HCl, 100 mM KCl). The reaction was stimulated by adding 50 L 1 mM proline-glycine-proline (Bachem, H-7284) and incubated for 30 minutes at 37° C. The reaction was stopped with the addition of 150 μL of glacial acetic acid. The amount of free proline released from the peptide was detected through a reaction with ninhydrin. 150 μL of 25 mg/mL ninhydrin (BDH, B10132) in 60:40 acetic acid/water was added to each sample, and boiled for 30 minutes at 100° C. and once samples had cooled to room temperature, 350 μL of toluene was added to extract the ninhydrin reaction product. The amount of free proline was determined by comparing the absorbance at 520 nm to the L-proline (Sigma Aldrich, 81709) reference standard. Inhibition of free proline production was calculated based on control samples.

In test [5] the test system is LTB4 production in porcine or human whole blood. As to the kind of experiment: Whole blood HPLC assay, inhibition of LTB4 production. The format is cell-based. Conditions: 5 point curve, porcine or human whole blood (not specified). The procedure: Porcine or human whole blood (1 mL) was pre-incubated with a series of concentrations of compound solubilized in DMSO for 30 minutes. Production of leukotrienes were stimulated with the addition of 20 μM calcium ionophore (A23187), diluted from a 4 mM DMSO stock in HBSS, and incubated at room temperature for 20 minutes. In porcine blood 20 μM arachidonic acid was added in addition to the calcium ionophore. The blood was centrifuged at 2,000 rpm for 15 minutes, and the plasma fraction removed for further processing. Plasma samples were diluted with 500 μL acidified water (HCl pH 3.0) and loaded onto C18 SEP-PAK columns (Canadian Lifesciences IS12000) for solid phase extraction. The leukotrienes were analyzed by HPLC using an ACE C18 column (4.5 mm×150 mm, 5 m) eluted with acetonitrile/methanol/water mixture with H3PO4, pH 3.5 (37:26:37) with a flow rate of 1.8 mL/min. The amount of LTB4 (Cayman Chemical, 20110) was calculated based on reference standards and the level of inhibition of LTB4 production induced by the test compounds was calculated relative to control samples. The results provided in Table 3 are IC50 values calculated based on a 5 point curve, where Compound No. refers to the compounds identified in Table 1.

A further test concerns AA-induced ear edema. Nature of the test: Arachidonic acid (AA) induced mouse ear edema model. The format is in vivo, CD-1 mice. The settings on record: 4 hrs and 1 hr before AA 2 mg/ear, mice; for % Inhibition AA-Induced ear edema (0.3 mg/ear): topical 0.3 mg/ear; for % Inhibition AA-Induced ear edema (1 mg/ear): topical 1 mg/ear. The procedure: One group serves as a control and receives 20 μL of vehicle applied to the pinna of each ear (10 μL to the inside and 10 μL to the outside of the pinna). One or more additional groups serve as test groups. The test compound was applied to the pinna of one ear of the mouse in a 20 μL volume (10 μL to the inside and 10 μL to the outside of the pinna). Test compound or control vehicle (acetone/1% DMSO) was applied topically to the right ear 4 and 1 hour before the application of 2 mg/ear AA as a stimulus to both the inner and outer surfaces of CD-1 mice. The left ears received vehicle (acetone/1% DMSO) alone. The animal was lightly anesthetized again using isofluorane to enable application of the stimulus. For the control group, arachidonic acid (2 mg/ear) was applied as the stimulus to the pinna of one ear only, in a total volume of 20 μL of acetone (10 μL applied to the inside and 10 μL to the outside of the pinna). The other ear received 20 μL of acetone. This served to determine the increase in ear weight due to arachidonic acid in the absence of test compounds. For the test groups, arachidonic acid (2 mg/ear) was applied as the stimulus to the pinna of each ear, in a total volume of 20 μL of acetone (10 μL applied to the inside and 10 μL to the outside of the pinna). The animal was allowed to recover after application of the stimulus in each case. After 60 minutes the animal was euthanized and a standard biopsy sample was taken from each ear using a 6 mm skin biopsy punch (Acuderm). Ear edema was determined by the increase in weight of the tissue due to accumulation of fluid as a result of plasma extravasation. The ears were weighed separately using a balance suitable to record 0.1 mg. For the control group, the difference in ear weights was determined by subtracting the weight of the unstimulated ear from the stimulated ear, and this was a measure of the increase in ear weight due to edema. The percentage increase in ear weight was determined by dividing the increase in stimulated ear weight by the unstimulated ear weight and multiplying by 100. For the test groups, the difference in ear weights was determined by subtracting the weight of the untreated ear from the weight of the ear treated with test compound. The percent inhibition of the increase in ear weight for ears treated with the test compound was estimated by first subtracting the mean ear weight of the untreated controls from each tissue to determine the increase in tissue weight due to application of the arachidonic acid. The percent inhibition=1−(test drug stimulated ear (mg)/control stimulated ear (mg))×100. In Table 5, the data from inhibition of AA-induced ear edema in mice by topical application of compounds is provided. Compounds (0.3 or 1 mg/ear) were applied topically to the ear 4 hrs and 1 hr prior to application of arachidonic acid (AA; 2 mg/ear).

Setting [6] is: MC9, Table 2 column 3, no concentration in head (1 μM according to b732), read-out: % Inhibition LTC4.
[7] abbreviates: MC9, Table 2 column 4, no concentration in head (1 μM according to b732), read-out: % Inhibition LTB4.

For `CC(O)(CCc1ccc(Oc2nc3ccccc3o2)cc1)c1ccccc1` (stereo not drawn) [Compound 147, 4-[4-(1,3-benzoxazol-2-yloxy)phenyl]-2-phenylbutan-2-ol], the inhibition at 1 µM in test [1] (setting [6]) was 30 to 50%; in test [2] (setting [7]), more than 90%. For the same molecule, the inhibition at 3 µM in test [3] was in the range of 50 to 75%. In test [4], the “% Inhibition aminopeptidase-PGP activity of LTA4H” value is 25-50%.

Consider `CCC(O)(CCc1ccc(Oc2nc3ccccc3s2)cc1)C(F)(F)F` (stereo not drawn) [Compound 150, 1-[4-(1,3-benzothiazol-2-yloxy)phenyl]-3-(trifluoromethyl)pentan-3-ol], for which the inhibition at 1 µM was in the range of 10 to 30% in test [1] (MC9, 1 μM, read-out: % inhibition LTC4 (1 μM)); 10 to 30% in test [1] (setting [6]); 50 to 70% in test [2] (MC9, 1 μM, read-out: % inhibition LTB4 (1 μM)); 50 to 70% in test [2] (setting [7]). For the same molecule, the inhibition at 3 µM fell in the range of 70 to 90% in test [1] and 25 to 50% in test [3]. Moreover, in test [5], the IC50 lay within 1000 to 10000 nM. For the same molecule, the “% Inhibition aminopeptidase-PGP activity of LTA4H” value in test [4] is reported as less than 25%.

Consider `CCC(=O)CCc1ccc(Oc2nc3ccccc3s2)c(Cl)c1` [Compound 149, 1-[4-(1,3-benzothiazol-2-yloxy)-3-chlorophenyl]pentan-3-one], for which the inhibition at 1 µM in test [1] (setting [6]) was in the range of 30 to 50%; in test [2] (setting [7]) it was 50 to 70%. Moreover, in test [3], the inhibition at 3 µM is less than 25%. In test [4], the “% Inhibition aminopeptidase-PGP activity of LTA4H” value is given as 25-50%.

Take `CCC(=O)CCc1ccc(Oc2nc3ccccc3s2)c(F)c1` [Compound 152, 1-[4-(1,3-benzothiazol-2-yloxy)-3-fluorophenyl]-pentan-3-one]: the inhibition at 3 µM was 30 to 50% in test [1] and less than 25% in test [3]. Further, the inhibition at 1 µM was in the range of 30 to 50% in test [1] (setting [6]) and 50 to 70% in test [2] (setting [7]). The “% Inhibition aminopeptidase-PGP activity of LTA4H” value in test [4] is recorded as 25-50%.

In the case of `CC(O)(c1ccc(Oc2nc3c(F)cc(F)cc3s2)cc1)C(F)(F)F` (stereo not drawn) [Compound 181, 2-{4-[(4,6-difluoro-1,3-benzothiazol-2-yl)oxy]phenyl}-1,1,1-trifluoropropan-2-ol], the inhibition at 3 µM in test [1] is less than 10%; in test [3], 0 to 50%. The “% Inhibition aminopeptidase-PGP activity of LTA4H” value in test [4] is given as more than 75%.

`CCC(O)(CCc1ccc(Oc2nc3ccc(F)cc3s2)c(OC)c1)C(F)(F)F` (stereo not drawn) [Compound 108, 1-{4-[(6-fluoro-1,3-benzothiazol-2-yl)oxy]-3-methoxyphenyl}-3-(trifluoromethyl)pentan-3-ol] had an inhibition at 3 µM in test [1] of 50 to 70%. Further, the inhibition at 1 µM in test [1] (setting [6]) fell in the range of 70 to 90%. The inhibition at 1 µM in test [2] (setting [7]) was more than 90%. Besides, the half-maximal inhibitory concentration (IC50) in test [5] lay in the range of 1000 to 10000 nM. In the test with AA-induced ear edema, the “% Inhibition AA-Induced ear edema (0.3 mg/ear)” value is reported as less than 10% and the “% Inhibition AA-Induced ear edema (1 mg/ear)” value is listed as 30-50%.

`CC(CCc1ccc(OCc2ccc3ccccc3n2)cc1)N1CCCC1` (stereo not drawn) [Compound 190]: the results for the inhibition at 3 µM in test [1] and in test [3] were 30 to 50% and less than 25%, respectively. Further, the “% Inhibition aminopeptidase-PGP activity of LTA4H” value in test [4] is given as 25-50%.

On to `COc1cc(CCC(C)(O)C(F)(F)F)ccc1OCc1ccc2ccccc2n1` (stereo not drawn) [Compound 184, 1,1,1-trifluoro-4-[3-methoxy-4-(quinolin-2-ylmethoxy)phenyl]-2-methylbutan-2-ol], for which the IC50 in test [5] fell in the range of 100 to 1000 nM. For the same molecule, the inhibition at 3 µM in test [3] was less than 25%. Further, the “% Inhibition aminopeptidase-PGP activity of LTA4H” value in test [4] is listed as 25-50%.

`CCC(O)CCc1ccc(Oc2nc3ccccc3s2)c(OCC2CC2)c1` (stereo not drawn) [Compound 187, 1-[4-(1,3-benzothiazol-2-yloxy)-3-(cyclopropylmethoxy)-phenyl]-pentan-3-ol]: the values for the inhibition at 3 µM in test [1] and in test [3] were 50 to 70% and more than 75%, respectively. Also, the “% Inhibition aminopeptidase-PGP activity of LTA4H” value in test [4] is 50-75%.

For `COc1cc(CCC(C)(O)C(F)(F)F)ccc1Oc1nc2c(SC)cccc2s1` (stereo not drawn) [Compound 119, 1,1,1-trifluoro-4-(3-methoxy-4-{[4-(methylsulfanyl)-1,3-benzothiazol-2-yl]oxy}phenyl)-2-methylbutan-2-ol], the inhibition at 3 µM in test [1] is more than 90%. Also, the inhibition at 1 µM in test [1] (setting [6]) and in test [2] (setting [7]) was more than 90% each time. This molecule also registered a concentration for half-maximal inhibition (IC50) in test [5] of 1000 to 10000 nM. For the same molecule, the “% Inhibition AA-Induced ear edema (0.3 mg/ear)” value in the test on AA-induced ear edema was 30-50%. Besides, in the test with AA-induced ear edema, the “% Inhibition AA-Induced ear edema (1 mg/ear)” value is reported as 50-70%.

As for `OC(c1ccc(Oc2nc3c(F)cc(F)cc3s2)cc1)C(F)(F)F` (stereo not drawn) [Compound 179, 1-{4-[(4,6-difluoro-1,3-benzothiazol-2-yl)oxy]phenyl}-2,2,2-trifluoroethanol], the inhibition at 3 µM in test [1] was 10 to 30%; in test [3], more than 75%. Besides, in test [4], the “% Inhibition aminopeptidase-PGP activity of LTA4H” value was more than 75%.
